Where a name gives a salt, the structure may show the parent alone. Read-outs that look alike come from different tables or passages of the source.

Results on 34 compounds are retold here after article PMC6680850, “Anion Inhibition Profile of the β-Carbonic Anhydrase from the Opportunist Pathogenic Fungus Malassezia restricta Involved in Dandruff and Seborrheic Dermatitis” (Metabolites, 2019).

Assay [1] addresses β-CA from Malassezia restricta (MreCA) (Malassezia restricta, UniProt A0A3G2S4B9). Kind of assay: biochemical. Format: biochemical.
A further assay deals with hCA I. The conditions noted are these: cited from earlier work.
The target in assay [2] is β-CA from Malassezia globosa (MgCA). Further details: method as in PMID 29152053. The conditions noted are these: cited from earlier work.
The next assay concerns hCA II. The following applies: cited from earlier work; for Ki: pH 8.3.
Setting [3] is: CO2 hydration reaction, 20 °C, pH 8.3, stopped flow, ref [31].

Sequence of β-CA from Malassezia restricta (MreCA) (A0A3G2S4B9 1-238): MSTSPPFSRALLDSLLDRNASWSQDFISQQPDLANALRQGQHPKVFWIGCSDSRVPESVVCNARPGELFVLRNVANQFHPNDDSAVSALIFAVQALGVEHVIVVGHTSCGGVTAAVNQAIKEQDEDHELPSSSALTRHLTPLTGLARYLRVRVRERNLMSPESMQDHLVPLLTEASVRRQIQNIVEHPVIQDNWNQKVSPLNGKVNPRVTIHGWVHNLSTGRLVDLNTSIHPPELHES

Regarding `S=C(S)S` [CS3^2−, trithiocarbonate], the Ki in assay [1] (pH 8.3, read-out: KI MreCA) was 0.92 mM; on hCA I (setting [3]) it was 0.0087 mM; in assay [2] (setting [3]), 1.77 mM.

In the case of `[N-]=[N+]=[N-]` [N3^−, azide], the Ki is more than 50 mM in assay [1] (pH 8.3, read-out: KI MreCA) and 45.2 mM in assay [2] (pH 8.3). For the same compound, the “inhibition of hCA II in words” value in the assay with hCA II is on record as “well inhibited”.

Consider `NS(=O)(=O)O` [NH2SO3H, sulfamic acid], for which the Ki was 7.7 mM in assay [1] (pH 8.3, read-out: KI MreCA); 0.021 mM at hCA I (setting [3]); 0.083 mM in assay [2] (setting [3]).

With `[O-][Cl+3]([O-])([O-])O` [ClO4^−, perchlorate], the inhibition constant (Ki) in assay [1] (pH 8.3, read-out: KI MreCA) is 9.2 mM; in assay [2] (pH 8.3), more than 100 mM.

As for `O=C(O)O` [HCO3^−, bicarbonate], the Ki is 0.86 mM in assay [1] (pH 8.3, read-out: KI MreCA) and 0.59 mM in assay [2] (pH 8.3).

In the case of `[O]=[Ru](=[O])(=[O])=[O]` [RuO4^−, perruthenate], the Ki was 7.4 mM in assay [1] (pH 8.3, read-out: KI MreCA) and 8.82 mM in assay [2] (setting [3]).

With `[O]=[V]([OH])([OH])[O][V](=[O])([OH])[OH]` [V2O7^2−, divanadate], the Ki in assay [1] (pH 8.3, read-out: KI MreCA) was more than 50 mM; on hCA I (setting [3]) it was 0.54 mM; in assay [2] (setting [3]), 6.89 mM.

Regarding `O=C(O)O` [CO3^2, carbonate], the Ki in assay [1] (pH 8.3, read-out: KI MreCA) was more than 50 mM; in assay [2] (pH 8.3), more than 100 mM.

`O=[As](O)(O)c1ccccc1` [PhAsO3H2, phenylarsonic acid]: the Ki at hCA I (pH 8.3) is 31.7 mM; at hCA II, 49.2 mM; in assay [2] (pH 8.3), 0.09 mM.

As for `O=S(=O)(O)OOS(=O)(=O)O` [S2O8^2−, peroxydisulfate], the Ki in assay [1] (pH 8.3, read-out: KI MreCA) is more than 50 mM; in assay [2] (setting [3]) it was more than 100 mM.

Consider `[O]=[Re](=[O])(=[O])[OH]` [ReO4^−, perrhenate], for which the Ki is more than 50 mM in assay [1] (pH 8.3, read-out: KI MreCA) and 16.7 mM in assay [2] (setting [3]).

Consider `O=[N+]([O-])O` [NO3^−, nitrate], for which the inhibition constant Ki in assay [1] (pH 8.3, read-out: KI MreCA) is 9 mM; on hCA I (setting [3]), 7 mM; in assay [2] (setting [3]), 8.13 mM.

Turning to `O=[Se](=O)(O)O` [SeO4^2−], the Ki is 1.7 mM in assay [1] (pH 8.3, read-out: KI MreCA) and 7.41 mM in assay [2] (pH 8.3).

As for `[Br-].[K+]` [Br^−, bromide], the Ki in assay [1] (pH 8.3, read-out: KI MreCA) was more than 50 mM; at hCA I (pH 8.3), 4 mM; on hCA II it was 63 mM; in assay [2] (pH 8.3), 18.6 mM.

On to `I` [I^−, iodide], for which the inhibition constant (Ki) in assay [1] (pH 8.3, read-out: KI MreCA) is 8.6 mM; on hCA I (setting [3]) it was 0.3 mM; in assay [2] (setting [3]) it was 8.73 mM.

On to `O=[Te](=O)(O)O` [TeO4^2−, tellurate], for which the Ki in assay [1] (pH 8.3, read-out: KI MreCA) was 0.56 mM; at hCA I (pH 8.3), 0.66 mM; in assay [2] (pH 8.3) it was 5.75 mM.

As for `N#CO` [CNO^−, cyanate], the Ki was more than 50 mM in assay [1] (pH 8.3, read-out: KI MreCA) and 6.81 mM in assay [2] (pH 8.3).

With `O=S(O)O` [HSO3^−, bisulfite], the Ki was more than 50 mM in assay [1] (pH 8.3, read-out: KI MreCA); 18 mM on hCA I (setting [3]); more than 100 mM in assay [2] (setting [3]).

For the compound `O=S(=O)(O)O` [SO4^2−, sulfate], the Ki in assay [2] (pH 8.3) was 19.5 mM.

Turning to `[O]=[Sn]([OH])[OH]` [SnO3^2−, stannate], the Ki in assay [1] (pH 8.3, read-out: KI MreCA) is 0.56 mM; in assay [2] (pH 8.3), 5.07 mM.

In the case of `O=S(=O)(O)C(F)(F)F` [CF3SO3^−, trifalate], the inhibition constant (Ki) is 4.5 mM in assay [1] (pH 8.3, read-out: KI MreCA) and 2.28 mM in assay [2] (setting [3]).

Turning to `Cl` [Cl^−, chloride], the Ki was more than 50 mM in assay [1] (pH 8.3, read-out: KI MreCA); 6 mM at hCA I (pH 8.3); 7.98 mM in assay [2] (pH 8.3).

For `N#C[SeH]` [SeCN^−, selenocyanate], the inhibition constant Ki in assay [1] (pH 8.3, read-out: KI MreCA) was 0.65 mM; at hCA I (pH 8.3), 0.085 mM; in assay [2] (pH 8.3) it was 1.73 mM.

As for `F` [F^−, fluoride], the Ki in assay [1] (pH 8.3, read-out: KI MreCA) was more than 50 mM; in assay [2] (pH 8.3) it was 7.13 mM.

On to `O=P(O)(O)OP(=O)(O)O` [P2O7^2−, pyrophosphate], for which the Ki in assay [1] (pH 8.3, read-out: KI MreCA) is more than 50 mM; at hCA I (setting [3]), 25.8 mM; in assay [2] (setting [3]) it was 6.03 mM.

Take `CCN(CC)C(=S)S` [Et2NCS2^−, diethyldithiocarbamate]: the Ki in assay [1] is 0.075 mM; on hCA I (setting [3]), 0.00079 mM; in assay [2] (setting [3]), 0.3 mM.

On to `O=S(=O)(O)NS(=O)(=O)O` [NH(SO3)2^2−, iminodisulfite], for which the Ki in assay [1] (pH 8.3, read-out: KI MreCA) was more than 50 mM; at hCA I (setting [3]) it was 0.31 mM; in assay [2] (setting [3]), 21.4 mM.

In the case of osmate [OsO5^2−], the Ki is 8.5 mM in assay [1] (pH 8.3, read-out: KI MreCA) and 6.16 mM in assay [2] (pH 8.3).

Turning to `O=NO` [NO2^−, nitrite], the Ki is more than 50 mM in assay [1] (pH 8.3, read-out: KI MreCA) and 7.56 mM in assay [2] (pH 8.3).

For the compound `OB1OB2OB(O)OB(O1)O2` [B4O7^2−, tetraborate], the Ki in assay [1] (pH 8.3, read-out: KI MreCA) was 0.4 mM; in assay [2] (pH 8.3), 8.45 mM.

Consider `OB(O)c1ccccc1` [PhB(OH)2, phenylboronic acid], for which the Ki is 8.7 mM in assay [1], 58.6 mM at hCA I (pH 8.3) and 0.089 mM in assay [2] (pH 8.3). For the same compound, the “inhibition of hCA I in words” value in the assay with hCA I is reported as “not well inhibited”.

On to `NS(N)(=O)=O` [Inhibitor H2NSO2NH2, sulfamide], for which the Ki was 0.72 mM in assay [1] (pH 8.3, read-out: KI MreCA) and 0.094 mM in assay [2] (setting [3]).

With `F[P-](F)(F)(F)(F)F` [PF6^−, esafluorofosfato], the Ki in assay [1] (pH 8.3, read-out: KI MreCA) was 3.9 mM; in assay [2] (setting [3]) it was 6.47 mM.

Regarding `N#CS` [SCN^−, thiocyanate], the Ki is more than 50 mM in assay [1] (pH 8.3, read-out: KI MreCA) and 8.39 mM in assay [2] (pH 8.3).
